Measured values as given in patent US20220389013A1, “PYRIDOPYRIMIDINONE COMPOUNDS AND APPLICATIONS THEREOF” (BeBetter Med Inc., priority 2020, published 2022).

Key:
H23 (KRAS G12C) = experiment: Tumor cell proliferation inhibition assay (CellTiter-Glo), H23; type: cell-based, Human; conditions: 10% fetal bovine serum
Method: (§1) The H358, H23 or MIA-Paca2 cells were digested, centrifuged and resuspended, and the cell density was measured with a Scepter automatic cell counter. Cells were diluted to a solution containing 44,000 cells per milliliter, then added to a 96-well culture plate at 90 μL per well. The 96-well plate was placed in a 5% CO2 incubator at 37° C., and after the cells were cultured for 24 hours, different concentrations of the compounds to be tested were added. Cells were incubated with compounds in the presence of 10% fetal bovine serum for 72 hours. The inhibition of cell growth was assessed by measuring ATP levels by using the CellTiter-Glo Luminescent Cell Viability Assay Kit (details in manufacturer's instructions). In brief, 30 μL of CellTiter-Glo reagent was added to each well and the plate was shaken for 10 minutes to induce cell lysis, then the fluorescent signal was detected and recorded with a Fluoroskan Ascent FL (Thermo). Maximum signal values were obtained from cells treated with DMSO for 72 hours. Minimum signal values were obtained with medium only (zero cell number). Inhibition rate %=(maximum signal value-compound signal value)/(maximum signal value-minimum signal value)×100%. Data were processed by using Graphpad prism5 software. IC50 values were calculated using a sigmoidal dose-response curve.

MIA-Paca2 (KRAS G12C) = experiment: Tumor cell proliferation inhibition assay (CellTiter-Glo), MIA-Paca2; type: cell-based, Human; conditions: 10% fetal bovine serum
Method: as §1

H358 (KRAS G12C) = experiment: Tumor cell proliferation inhibition assay (CellTiter-Glo), H358; type: cell-based, Human; conditions: 10% fetal bovine serum
Method: as §1

[1] = Pharmacokinetic (PK) experiment in rats by gavage; type: in vivo; conditions: rat, plasma, po, male SD rats, 20 mg/kg
Method: Male SD rats, weighing 180-250 g, were fasted overnight before the test and stomach administrated with the test compound at 20 mg/kg. 15 minutes, 30 minutes, and 1, 2, 4, 6, 8, and 24 hours after administration, blood was taken from the end of the tail of the fracture, about 0.3 mL per time point, then placed in a centrifuge tube containing K2-EDTA, and centrifuged (2000 g, 10 min, at 4° C.). Plasma was collected and stored in an ultra-low temperature freezer at −80° C. 50 μL of plasma samples were vortexed with 135 μL of acetonitrile (containing 1 μg/mL internal standard) for protein precipitation and centrifuged, and the supernatant was collected for LC-MS/MS analysis.
After the rats oral administrated with the Pyridopyrimidinone compounds provided by the present disclosure, the absorption is good, and the blood exposure is relatively high. […] Cmax refers to the maximum plasma concentration, T1/2 is the half-life, AUC0-24 refers to the area under the 0-24 hour time-concentration curve, and AUC0-inf refers to the area under the 0-Inf time-concentration curve.

Compound | IC50 (MIA-Paca2 (KRAS G12C); Homo sapiens, MIA PaCa-2, 72 h) | melting point | IC50 (H358 (KRAS G12C); Homo sapiens, NCI-H358, 72 h) | also measured
C=CC(=O)N1CCN(c2nc(=O)n(-c3c(C)ccnc3C(C)C)c3nc(-c4c(F)c(F)cc5ccoc45)c(F)cc23)[C@@H](C)C1 [Compound 74, 4-((S)-4-acryloyl-2-methylpiperazin-1-yl)-7-(5,6-difluorobenzofuran-7-yl)-6-fluoro-1-(2-isopropyl-4-methylpyridin-3-yl)pyrido[2,3-d]pyrimidin-2(1H)-one] | – | – | – | IC50 (H23 (KRAS G12C); 72 hours): < 10 nM; IC50 (MIA-Paca2 (KRAS G12C); 72 hours): 50 to 100 nM; IC50 (H358 (KRAS G12C); 72 hours): 10 to 50 nM
C=CC(=O)N1CCN(c2nc(=O)n(-c3c(C#N)cccc3C(C)C)c3nc(-c4c(F)ccc5ccoc45)c(F)cc23)[C@@H](C)C1 [Compound 123, 2-(4-((S)-4-acryloyl-2-methylpiperazin-1-yl)-6-fluoro-7-(6-fluorobenzofuran-7-yl)-2-oxopyrido[2,3-d]pyrimidin-1(2H)-yl)-3-isopropylbenzonitrile] | 50 to 100 nM | 146 to 149 °C | 10 to 50 nM | –
C=CC(=O)N1C[C@H](C)N(c2nc(=O)n(-c3c(C)ccnc3C(C)C)c3nc(-c4c(F)ccc5ccoc45)c(F)cc23)C[C@H]1C [Compound 89, 4-((2S,5R)-4-acryloyl-2,5-dimethylpiperazin-1-yl)-6-fluoro-7-(6-fluorobenzofuran-7-yl)-1-(2-isopropyl-4-methylpyridin-3-yl)pyrido[2,3-d]pyrimidin-2(1H)-one] | – | 147 to 149 °C | 10 to 50 nM | AUC(0-inf) [1]: 14100 ng·h/mL; Cmax [1]: 4300 ng/mL; Tmax [1]: 1 h; half-life [1]: 2.11 h; AUC(0-t) ([1]; read-out: AUC0-24): 14000 ng·h/mL; IC50 (MIA-Paca2 (KRAS G12C); 72 hours): 10 to 50 nM
C=CC(=O)N1CCN(c2nc(=O)n(-c3c(C)ncnc3C(C)C)c3nc(-c4c(F)ccc5ccoc45)c(F)cc23)[C@@H](C)C1 [Compound 116, 4-((S)-4-acryloyl-2-methylpiperazin-1-yl)-6-fluoro-7-(6-fluorobenzofuran-7-yl)-1-(4-isopropyl-6-methylpyrimidin-5-yl)pyrido[2,3-d]pyrimidin-2(1H)-one] | 100 to 500 nM | 143 to 146 °C | 50 to 100 nM | –
C=CC(=O)N1CCN(c2nc(=O)n(-c3c(C)ccnc3C(C)C)c3nc(-c4c(C)ccc5ccoc45)c(F)cc23)[C@@H](C)C1 [Compound 108, 4-((S)-4-acryloyl-2-methylpiperazin-1-yl)-6-fluoro-1-(2-isopropyl-4-methylpyridin-3-yl)-7-(6-methylbenzofuran-7-yl)pyrido[2,3-d]pyrimidin-2(1H)-one] | 100 to 500 nM | 151 to 163 °C | 10 to 50 nM | –
C=CC(=O)N1CCN(c2nc(=O)n(-c3c(C)ccnc3C(C)C)c3nc(-c4c(F)c(F)cc5ccoc45)c(Cl)cc23)[C@@H](C)C1 (atropisomer, axis not shown; (P)) [Compound 103-2, 4-((S)-4-acryloyl-2-methylpiperazin-1-yl)-6-chloro-7-(5,6-difluorobenzofuran-7-yl)-1(P)-(2-isopropyl-4-methylpyridin-3-yl)pyrido[2,3-d]pyrimidin-2(1H)-one] | – | – | – | IC50 (H23 (KRAS G12C); 72 hours): 10 to 50 nM; IC50 (MIA-Paca2 (KRAS G12C); 72 hours): 100 to 500 nM; IC50 (H358 (KRAS G12C); 72 hours): 100 to 500 nM
C=CC(=O)N1C[C@H](C)N(c2nc(=O)n(-c3c(C)ccnc3C(C)C)c3nc(-c4c(F)c(F)cc5ccoc45)c(F)cc23)C[C@H]1C [Compound 91, 4-((2S,5R)-4-acryloyl-2,5-dimethylpiperazin-1-yl)-7-(5,6-difluorobenzofuran-7-yl)-6-fluoro-1-(2-isopropyl-4-methylpyridin-3-yl)pyrido[2,3-d]pyrimidin-2(1H)-one] | – | – | – | IC50 (H23 (KRAS G12C); 72 hours): < 10 nM; IC50 (MIA-Paca2 (KRAS G12C); 72 hours): 50 to 100 nM; IC50 (H358 (KRAS G12C); 72 hours): 10 to 50 nM
C=CC(=O)N1CCN(c2nc(=O)n(-c3c(C)ccnc3C(C)C)c3nc(-c4c(F)c(F)cc5ccoc45)c(F)cc23)[C@@H](C)C1 (atropisomer, axis not shown; (P)) [Compound 74-2, 4-((S)-4-acryloyl-2-methylpiperazin-1-yl)-7-(5,6-difluorobenzofuran-7-yl)-6-fluoro-1(P)-(2-isopropyl-4-methylpyridin-3-yl)pyrido[2,3-d]pyrimidin-2(1H)-one] | – | – | – | IC50 (H23 (KRAS G12C); 72 hours): 100 to 500 nM; IC50 (MIA-Paca2 (KRAS G12C); 72 hours): > 500 nM; IC50 (H358 (KRAS G12C); 72 hours): > 500 nM
C=CC(=O)N1CCN(c2nc(=O)n(-c3c(C)nc(C)nc3C(C)C)c3nc(-c4c(F)ccc5ccoc45)c(F)cc23)[C@@H](C)C1 [Compound 117, 4-((S)-4-acryloyl-2-methylpiperazin-1-yl)-6-fluoro-7-(6-fluorobenzofuran-7-yl)-1-(4-isopropyl-2,6-dimethylpyrimidin-5-yl)pyrido[2,3-d]pyrimidin-2(1H)-one] | 50 to 100 nM | 133 to 136 °C | 50 to 100 nM | –
C=CC(=O)N1CCN(c2nc(=O)n(-c3c(C)ccnc3C(C)C)c3nc(-c4c(F)ccc5ncsc45)c(F)cc23)[C@@H](C)C1 [Compound 78, 4-((S)-4-acryloyl-2-methylpiperazin-1-yl)-6-fluoro-7-(6-fluorobenzo[d]thiazol-7-yl)-1-(2-isopropyl-4-methylpyridin-3-yl)pyrido[2,3-d]pyrimidin-2(1H)-one] | > 500 nM | 158 to 162 °C | 100 to 500 nM | –
C=CC(=O)N1CCN(c2nc(=O)n(-c3c(CO)cccc3C(C)C)c3nc(-c4c(F)ccc5ccoc45)c(F)cc23)[C@@H](C)C1 [Compound 126, 4-((S)-4-acryloyl-2-methylpiperazin-1-yl)-6-fluoro-7-(6-fluorobenzofuran-7-yl)-1-(2-(hydroxymethyl)-6-isopropylphenyl)pyrido[2,3-d]pyrimidin-2(1H)-one] | 100 to 500 nM | 146 to 149 °C | 50 to 100 nM | –
COC/C=C/C(=O)N1CCN(c2nc(=O)n(-c3c(C)ccnc3C(C)C)c3nc(-c4cc5ccoc5cc4F)c(F)cc23)[C@@H](C)C1 [Compound 115, (S,E)-6-fluoro-7-(6-fluorobenzofuran-5-yl)-1-(2-isopropyl-4-methylpyridin-3-yl)-4-(4-(4-methoxybut-2-enoyl)-2-methylpiperazin-1-yl)pyrido[2,3-d]pyrimidin-2(1H)-one] | > 500 nM | 136 to 138 °C | > 500 nM | –
Cc1ccnc(C(C)C)c1-n1c(=O)nc(N2CCN(C(=O)/C=C/CN(C)C)C[C@@H]2C)c2cc(F)c(-c3cc4ccoc4cc3F)nc21 [Compound 114, (S,E)-4-(4-(4-(dimethylamino)but-2-enoyl)-2-methylpiperazin-1-yl)-6-fluoro-7-(6-fluorobenzofuran-5-yl)-1-(2-isopropyl-4-methylpyridin-3-yl)pyrido[2,3-d]pyrimidin-2(1H)-one] | > 500 nM | 162 to 164 °C | > 500 nM | –
C=CC(=O)N1CCN(c2nc(=O)n(-c3c(C)ccnc3C(C)C)c3nc(-c4c(F)ccc5ccsc45)c(F)cc23)[C@@H](C)C1 [Compound 71, 4-((S)-4-Acryloyl-2-methylpiperazin-1-yl)-6-fluoro-7-(6-fluorobenzo[b]thiophen-7-yl)-1-(2-isopropyl-4-methylpyridin-3-yl)pyrido[2,3-d]pyrimidin-2(1H)-one] | 50 to 100 nM | 148 to 150 °C | 10 to 50 nM | –
C=CC(=O)N1CCN(c2nc(=O)n(-c3c(C#N)cccc3C(C)C)c3nc(-c4c(F)ccc5ccoc45)c(Cl)cc23)[C@@H](C)C1 [Compound 124, 2-(4-((S)-4-acryloyl-2-methylpiperazin-1-yl)-6-chloro-7-(6-fluorobenzofuran-7-yl)-2-oxopyrido[2,3-d]pyrimidin-1(2H)-yl)-3-isopropylbenzonitrile] | 10 to 50 nM | 164 to 166 °C | < 10 nM | –
C=CC(=O)N1CCN(c2nc(=O)n(-c3c(C)ccnc3C(C)C)c3nc(-c4c(F)ccc5ccoc45)c(Cl)cc23)[C@@H](CC)C1 [Compound 99, 4-((S)-4-acryloyl-2-ethylpiperazin-1-yl)-6-chloro-7-(6-fluorobenzofuran-7-yl)-1-(2-isopropyl-4-methylpyridin-3-yl)pyrido[2,3-d]pyrimidin-2(1H)-one] | 100 to 500 nM | – | 50 to 100 nM | IC50 (H23 (KRAS G12C); Homo sapiens, 72 h): < 10 nM
C/C=C/C(=O)N1CCN(c2nc(=O)n(-c3c(C)ccnc3C(C)C)c3nc(-c4cc5ccoc5cc4F)c(F)cc23)[C@@H](C)C1 [Compound 113, (S,E)-4-(4-(but-2-enoyl)-2-methylpiperazin-1-yl)-6-fluoro-7-(6-fluorobenzofuran-5-yl)-1-(2-isopropyl-4-methylpyridin-3-yl)pyrido[2,3-d]pyrimidin-2(1H)-one] | > 500 nM | 155 to 157 °C | > 500 nM | –
